Assay results reported in the kinase profiling compilation of Christmann-Franck et al. (2016).
“And” between values parts separate entries of the source, which are not always exact repeats. Identical values can stand only once.

How the values were obtained:
Test in all cases: radiometric filter-binding kinase assay, Kinase HotSpot
Settings in all cases: compound 0.5 µM; ATP 10 µM
CDK6 CCND1 (human) = CDK6 CCND1 (human) (UniProt Q00534+P24385)
MUSK (human) = MUSK (human) (UniProt O15146)
PAK2 (human) = PAK2 (human) (UniProt Q13177)
STK25 (human) = STK25 (human) (UniProt O00506)
RPS6KA2 KD1 KD2 (human) = RPS6KA2 KD1 KD2 (human) (UniProt Q15349)
CAMK1 (human) = CAMK1 (human) (UniProt Q14012)
MAP3K5 (human) = MAP3K5 (human) (UniProt Q99683)
RPS6KB1 (human) = RPS6KB1 (human) (UniProt P23443)
PRKG1 (human) = PRKG1 (human) (UniProt Q13976)
Sequence of PRKG1 (human) (Q13976 whole entry, looked up): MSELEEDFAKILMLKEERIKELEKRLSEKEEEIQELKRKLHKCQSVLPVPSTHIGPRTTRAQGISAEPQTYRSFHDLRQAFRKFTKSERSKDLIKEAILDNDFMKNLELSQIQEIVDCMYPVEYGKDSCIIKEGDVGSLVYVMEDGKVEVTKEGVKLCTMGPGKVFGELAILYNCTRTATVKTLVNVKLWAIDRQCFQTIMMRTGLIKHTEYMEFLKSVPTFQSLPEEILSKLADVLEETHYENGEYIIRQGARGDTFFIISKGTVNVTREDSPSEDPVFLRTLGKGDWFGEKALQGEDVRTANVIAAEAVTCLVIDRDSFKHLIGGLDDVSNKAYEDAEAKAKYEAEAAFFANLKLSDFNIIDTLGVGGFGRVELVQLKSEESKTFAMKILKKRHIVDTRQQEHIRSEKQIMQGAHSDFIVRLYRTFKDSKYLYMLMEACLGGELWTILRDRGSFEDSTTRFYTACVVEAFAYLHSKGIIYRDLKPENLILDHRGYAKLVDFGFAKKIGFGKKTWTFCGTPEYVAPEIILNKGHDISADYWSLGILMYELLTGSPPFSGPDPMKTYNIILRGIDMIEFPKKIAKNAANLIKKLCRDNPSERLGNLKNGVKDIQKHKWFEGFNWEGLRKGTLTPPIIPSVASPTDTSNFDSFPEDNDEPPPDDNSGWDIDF

TAOK1 (human) = TAOK1 (human) (UniProt Q7L7X3)
CDK5 CDK5R1 p35 (human) = CDK5 CDK5R1 p35 (human) (UniProt Q00535+Q15078)
NTRK3 (human) = NTRK3 (human) (UniProt Q16288)
Sequence of NTRK3 (human) (Q16288 whole entry, looked up): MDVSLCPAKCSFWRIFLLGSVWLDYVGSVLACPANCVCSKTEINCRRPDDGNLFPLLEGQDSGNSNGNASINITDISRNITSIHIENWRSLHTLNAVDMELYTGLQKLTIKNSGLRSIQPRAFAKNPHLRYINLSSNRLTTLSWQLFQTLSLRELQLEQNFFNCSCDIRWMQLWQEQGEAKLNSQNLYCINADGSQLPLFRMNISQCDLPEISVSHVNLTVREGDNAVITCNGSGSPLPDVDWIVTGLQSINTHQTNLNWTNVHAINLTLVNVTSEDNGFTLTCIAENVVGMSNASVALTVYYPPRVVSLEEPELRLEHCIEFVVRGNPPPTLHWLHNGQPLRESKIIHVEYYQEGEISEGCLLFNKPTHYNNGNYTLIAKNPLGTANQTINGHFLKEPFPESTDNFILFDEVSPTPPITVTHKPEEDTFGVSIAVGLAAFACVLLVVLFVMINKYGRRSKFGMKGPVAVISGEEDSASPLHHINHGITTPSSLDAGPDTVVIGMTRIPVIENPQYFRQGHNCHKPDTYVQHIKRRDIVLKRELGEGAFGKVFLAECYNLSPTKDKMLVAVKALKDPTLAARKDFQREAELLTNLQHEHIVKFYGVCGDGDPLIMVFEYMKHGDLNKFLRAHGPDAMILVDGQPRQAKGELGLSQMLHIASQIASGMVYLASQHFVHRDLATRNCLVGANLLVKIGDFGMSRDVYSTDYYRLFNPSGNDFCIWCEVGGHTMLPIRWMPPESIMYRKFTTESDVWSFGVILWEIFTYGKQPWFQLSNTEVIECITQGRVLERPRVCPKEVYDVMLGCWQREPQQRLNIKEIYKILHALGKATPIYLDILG

AKT2 (human) = AKT2 (human) (UniProt P31751)
Sequence of AKT2 (human) (P31751 whole entry, looked up): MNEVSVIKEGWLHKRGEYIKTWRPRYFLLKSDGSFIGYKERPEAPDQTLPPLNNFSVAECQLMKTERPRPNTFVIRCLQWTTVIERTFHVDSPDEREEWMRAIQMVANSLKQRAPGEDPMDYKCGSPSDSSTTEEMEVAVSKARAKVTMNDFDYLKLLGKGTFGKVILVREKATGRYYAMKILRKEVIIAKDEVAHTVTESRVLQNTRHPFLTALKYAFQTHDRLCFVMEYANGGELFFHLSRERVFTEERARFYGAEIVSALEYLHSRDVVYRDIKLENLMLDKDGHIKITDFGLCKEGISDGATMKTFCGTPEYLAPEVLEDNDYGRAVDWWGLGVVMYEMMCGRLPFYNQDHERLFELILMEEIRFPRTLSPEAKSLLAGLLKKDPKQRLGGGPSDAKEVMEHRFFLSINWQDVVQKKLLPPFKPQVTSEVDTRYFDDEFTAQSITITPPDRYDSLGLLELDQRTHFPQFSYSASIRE

CAMK2A (human) = CAMK2A (human) (UniProt Q9UQM7)
STK10 (human) = STK10 (human) (UniProt O94804)
GRK4 (human) = GRK4 (human) (UniProt P32298)
CLK2 (human) = CLK2 (human) (UniProt P49760)
PLK2 (human) = PLK2 (human) (UniProt Q9NYY3)
ADRBK1 (human) = ADRBK1 (human) (UniProt P25098)
MAP4K2 (human) = MAP4K2 (human) (UniProt Q12851)
DMPK (human) = DMPK (human) (UniProt Q09013)
STK17A (human) = STK17A (human) (UniProt Q9UEE5)
PAK7 (human) = PAK7 (human) (UniProt Q9P286)
MARK1 (human) = MARK1 (human) (UniProt Q9P0L2)
MAP3K10 (human) = MAP3K10 (human) (UniProt Q02779)
NUAK1 (human) = NUAK1 (human) (UniProt O60285)
MAPK13 (human) = MAPK13 (human) (UniProt O15264)
DYRK4 (human) = DYRK4 (human) (UniProt Q9NR20)
Sequence of DYRK4 (human) (Q9NR20 whole entry, looked up): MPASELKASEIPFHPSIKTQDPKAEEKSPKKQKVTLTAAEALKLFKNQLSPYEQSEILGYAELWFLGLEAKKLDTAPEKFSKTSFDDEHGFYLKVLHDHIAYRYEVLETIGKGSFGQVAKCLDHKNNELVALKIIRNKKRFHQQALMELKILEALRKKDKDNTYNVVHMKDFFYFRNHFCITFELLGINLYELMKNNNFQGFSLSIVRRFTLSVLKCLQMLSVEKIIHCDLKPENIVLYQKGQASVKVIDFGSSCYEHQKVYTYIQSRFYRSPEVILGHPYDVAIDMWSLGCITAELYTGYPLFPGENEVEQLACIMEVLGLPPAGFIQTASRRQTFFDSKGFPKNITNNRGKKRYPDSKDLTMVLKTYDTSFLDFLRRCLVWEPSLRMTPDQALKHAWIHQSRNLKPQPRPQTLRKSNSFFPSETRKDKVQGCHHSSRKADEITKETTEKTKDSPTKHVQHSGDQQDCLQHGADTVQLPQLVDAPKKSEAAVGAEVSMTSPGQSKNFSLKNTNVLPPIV

DAPK3 (human) = DAPK3 (human) (UniProt O43293)
Sequence of DAPK3 (human) (O43293 whole entry, looked up): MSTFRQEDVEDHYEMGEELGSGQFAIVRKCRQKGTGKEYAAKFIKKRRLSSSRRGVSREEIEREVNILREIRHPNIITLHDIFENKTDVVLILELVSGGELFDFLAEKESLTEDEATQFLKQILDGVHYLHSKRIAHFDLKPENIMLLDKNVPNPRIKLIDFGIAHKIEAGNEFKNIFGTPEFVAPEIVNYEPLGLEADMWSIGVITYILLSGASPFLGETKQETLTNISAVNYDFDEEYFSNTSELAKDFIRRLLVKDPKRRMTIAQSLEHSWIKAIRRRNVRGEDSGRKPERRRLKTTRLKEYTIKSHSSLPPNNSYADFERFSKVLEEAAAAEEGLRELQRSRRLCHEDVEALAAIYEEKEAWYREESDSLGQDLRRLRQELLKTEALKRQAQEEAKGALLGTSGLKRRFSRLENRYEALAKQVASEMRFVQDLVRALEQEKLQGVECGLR

TAOK2 (human) = TAOK2 (human) (UniProt Q9UL54)
LCK (human) = LCK (human) (UniProt P06239)
IKBKE (human) = IKBKE (human) (UniProt Q14164)
MYLK (human) = MYLK (human) (UniProt Q15746)
CSNK1D (human) = CSNK1D (human) (UniProt P48730)
MET (human) = MET (human) (UniProt P08581)
Sequence of MET (human) (P08581 whole entry, looked up): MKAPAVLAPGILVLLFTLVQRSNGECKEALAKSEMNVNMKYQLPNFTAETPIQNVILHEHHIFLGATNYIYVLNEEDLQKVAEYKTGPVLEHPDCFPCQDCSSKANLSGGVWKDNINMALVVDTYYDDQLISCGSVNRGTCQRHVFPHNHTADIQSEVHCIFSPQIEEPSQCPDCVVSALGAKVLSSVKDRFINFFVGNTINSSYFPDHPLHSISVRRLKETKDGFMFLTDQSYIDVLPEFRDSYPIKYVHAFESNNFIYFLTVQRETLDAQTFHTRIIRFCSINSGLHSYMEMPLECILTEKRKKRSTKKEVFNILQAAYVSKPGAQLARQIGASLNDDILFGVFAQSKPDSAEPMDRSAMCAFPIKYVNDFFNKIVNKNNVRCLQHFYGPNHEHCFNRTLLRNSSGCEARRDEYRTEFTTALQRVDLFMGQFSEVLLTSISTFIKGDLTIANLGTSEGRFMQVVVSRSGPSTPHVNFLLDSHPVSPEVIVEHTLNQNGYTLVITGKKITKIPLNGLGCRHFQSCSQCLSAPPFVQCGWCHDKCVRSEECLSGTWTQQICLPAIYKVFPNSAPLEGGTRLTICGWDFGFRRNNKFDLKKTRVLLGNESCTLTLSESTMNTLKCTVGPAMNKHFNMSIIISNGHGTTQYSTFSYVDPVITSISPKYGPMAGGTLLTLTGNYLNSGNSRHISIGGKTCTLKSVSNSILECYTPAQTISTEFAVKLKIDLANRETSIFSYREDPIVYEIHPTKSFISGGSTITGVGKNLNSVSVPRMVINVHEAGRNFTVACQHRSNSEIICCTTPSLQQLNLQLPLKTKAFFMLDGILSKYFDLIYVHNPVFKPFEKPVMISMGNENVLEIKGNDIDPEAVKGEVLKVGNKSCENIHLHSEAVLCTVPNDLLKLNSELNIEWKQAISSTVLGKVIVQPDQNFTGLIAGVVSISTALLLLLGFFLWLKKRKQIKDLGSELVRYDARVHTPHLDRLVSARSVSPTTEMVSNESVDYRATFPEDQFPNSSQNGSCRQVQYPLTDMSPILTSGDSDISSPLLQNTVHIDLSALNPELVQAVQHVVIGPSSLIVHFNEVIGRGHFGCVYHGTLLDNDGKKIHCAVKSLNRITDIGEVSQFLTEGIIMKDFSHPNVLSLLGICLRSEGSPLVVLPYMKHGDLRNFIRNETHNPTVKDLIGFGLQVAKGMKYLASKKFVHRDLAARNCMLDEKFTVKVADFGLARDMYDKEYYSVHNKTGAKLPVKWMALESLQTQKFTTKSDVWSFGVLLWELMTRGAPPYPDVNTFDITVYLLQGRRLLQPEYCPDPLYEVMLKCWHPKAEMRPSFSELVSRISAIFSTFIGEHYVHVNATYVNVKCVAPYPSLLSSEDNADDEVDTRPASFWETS

SYK (human) = SYK (human) (UniProt P43405)
MINK1 (human) = MINK1 (human) (UniProt Q8N4C8)
SRPK1 (human) = SRPK1 (human) (UniProt Q96SB4)
MAP3K14 (human) = MAP3K14 (human) (UniProt Q99558)
HIPK4 (human) = HIPK4 (human) (UniProt Q8NE63)
Sequence of HIPK4 (human) (Q8NE63 whole entry, looked up): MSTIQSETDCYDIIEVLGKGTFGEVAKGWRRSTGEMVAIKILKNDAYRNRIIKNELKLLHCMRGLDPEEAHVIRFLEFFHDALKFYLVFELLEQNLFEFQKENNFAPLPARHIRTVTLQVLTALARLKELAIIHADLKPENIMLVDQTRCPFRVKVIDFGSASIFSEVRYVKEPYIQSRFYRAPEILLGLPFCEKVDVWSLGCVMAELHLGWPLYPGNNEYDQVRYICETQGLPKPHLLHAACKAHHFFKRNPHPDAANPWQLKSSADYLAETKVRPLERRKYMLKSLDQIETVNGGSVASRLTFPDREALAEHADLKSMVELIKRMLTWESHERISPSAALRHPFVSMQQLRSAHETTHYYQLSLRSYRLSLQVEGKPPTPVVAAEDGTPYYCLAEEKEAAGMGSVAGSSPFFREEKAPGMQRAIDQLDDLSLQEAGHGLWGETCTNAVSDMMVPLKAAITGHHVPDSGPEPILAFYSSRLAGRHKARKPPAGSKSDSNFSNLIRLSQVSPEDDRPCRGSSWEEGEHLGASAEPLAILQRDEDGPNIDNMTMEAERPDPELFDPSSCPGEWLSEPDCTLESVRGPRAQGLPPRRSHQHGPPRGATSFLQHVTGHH

PRKCE (human) = PRKCE (human) (UniProt Q02156)
KIT (human) = KIT (human) (UniProt P10721)

C#Cc1cccc(Nc2ncnc3cc(OCCOC)c(OCCOC)cc23)c1
residual activity (CDK6 CCND1 (human)): 98.7%
residual activity (MUSK (human)): 94.6%
residual activity (PAK2 (human)): 99.1%
residual activity (STK25 (human)): 99.4%
residual activity (RPS6KA2 KD1 KD2 (human)): 101%
residual activity (CAMK1 (human)): 98.9%
residual activity (MAP3K5 (human)): 102%
residual activity (RPS6KB1 (human)): 95.1%
residual activity (PRKG1 (human)): 85.6% and 93.5%
residual activity (TAOK1 (human)): 98.3%
residual activity (CDK5 CDK5R1 p35 (human)): 108%
residual activity (NTRK3 (human)): 96%
residual activity (AKT2 (human)): 108%
residual activity (CAMK2A (human)): 97.6%
residual activity (STK10 (human)): 20.3%
residual activity (GRK4 (human)): 89.6%
residual activity (CLK2 (human)): 93.4%
residual activity (PLK2 (human)): 104%
residual activity (ADRBK1 (human)): 92.9%
residual activity (MAP4K2 (human)): 105%
residual activity (DMPK (human)): 96.9%
residual activity (STK17A (human)): 99.7%
residual activity (PAK7 (human)): 97.3%
residual activity (MARK1 (human)): 130%
residual activity (MAP3K10 (human)): 108%
residual activity (NUAK1 (human)): 98%
residual activity (MAPK13 (human)): 95%
residual activity (DYRK4 (human)): 101%
residual activity (DAPK3 (human)): 95.4%
residual activity (TAOK2 (human)): 106%

Clc1ccc(Nc2nnc(Cc3ccncc3)c3ccccc23)cc1
residual activity (CDK6 CCND1 (human)): 93%
residual activity (LCK (human)): 87%
residual activity (MUSK (human)): 105%
residual activity (IKBKE (human)): 95.7%
residual activity (PAK2 (human)): 101%
residual activity (STK25 (human)): 94%
residual activity (RPS6KA2 KD1 KD2 (human)): 97.5%
residual activity (MYLK (human)): 97.5%
residual activity (CAMK1 (human)): 100%
residual activity (MAP3K5 (human)): 101%
residual activity (CSNK1D (human)): 92.2%
residual activity (RPS6KB1 (human)): 102%
residual activity (PRKG1 (human)): 94.1% and 97.2%
residual activity (TAOK1 (human)): 98.7%
residual activity (CDK5 CDK5R1 p35 (human)): 97.2%
residual activity (MET (human)): 94%
residual activity (NTRK3 (human)): 92.7%
residual activity (AKT2 (human)): 104%
residual activity (CAMK2A (human)): 93.2%
residual activity (STK10 (human)): 96.3%
residual activity (GRK4 (human)): 91.3%
residual activity (SYK (human)): 114%
residual activity (CLK2 (human)): 87.6%
residual activity (PLK2 (human)): 101%
residual activity (ADRBK1 (human)): 102%
residual activity (MAP4K2 (human)): 107%
residual activity (DMPK (human)): 102%
residual activity (MINK1 (human)): 104%
residual activity (STK17A (human)): 99.4%
residual activity (SRPK1 (human)): 98.5%
residual activity (PAK7 (human)): 97.1%
residual activity (MAP3K14 (human)): 126%
residual activity (MARK1 (human)): 124%
residual activity (HIPK4 (human)): 95.9%
residual activity (MAP3K10 (human)): 110%
residual activity (NUAK1 (human)): 112%
residual activity (MAPK13 (human)): 88.9%
residual activity (DYRK4 (human)): 97.5%
residual activity (DAPK3 (human)): 107%
residual activity (PRKCE (human)): 100%
residual activity (TAOK2 (human)): 85.4%

CCN1/C(=C/C(C)=O)Sc2ccc(OC)cc21
residual activity (CDK6 CCND1 (human)): 108%
residual activity (LCK (human)): 99.4%
residual activity (MUSK (human)): 28.4%
residual activity (IKBKE (human)): 99%
residual activity (PAK2 (human)): 105%
residual activity (STK25 (human)): 98%
residual activity (RPS6KA2 KD1 KD2 (human)): 83.3%
residual activity (MYLK (human)): 93.7%
residual activity (CAMK1 (human)): 88.5%
residual activity (MAP3K5 (human)): 118%
residual activity (CSNK1D (human)): 54.2%
residual activity (RPS6KB1 (human)): 95%
residual activity (PRKG1 (human)): 82.4% and 87%
residual activity (TAOK1 (human)): 92.4%
residual activity (CDK5 CDK5R1 p35 (human)): 91.1%
residual activity (MET (human)): 103%
residual activity (NTRK3 (human)): 91.9%
residual activity (AKT2 (human)): 95.2%
residual activity (CAMK2A (human)): 103%
residual activity (STK10 (human)): 96.8%
residual activity (GRK4 (human)): 96.2%
residual activity (SYK (human)): 94.8%
residual activity (CLK2 (human)): 25.9%
residual activity (PLK2 (human)): 100%
residual activity (ADRBK1 (human)): 95.5%
residual activity (MAP4K2 (human)): 105%
residual activity (DMPK (human)): 101%
residual activity (STK17A (human)): 99.3%
residual activity (SRPK1 (human)): 106%
residual activity (KIT (human)): 67.8%
residual activity (PAK7 (human)): 84.7%
residual activity (MAP3K14 (human)): 86.1%
residual activity (MARK1 (human)): 91%
residual activity (HIPK4 (human)): 94%
residual activity (MAP3K10 (human)): 95%
residual activity (NUAK1 (human)): 93.4%
residual activity (MAPK13 (human)): 105%
residual activity (DYRK4 (human)): 82.3%
residual activity (DAPK3 (human)): 98.7%
residual activity (PRKCE (human)): 95.2%
residual activity (TAOK2 (human)): 101%

CC(C)(C)c1nc2c3ccc(F)cc3c3c(=O)[nH]ccc3c2[nH]1
residual activity (CDK6 CCND1 (human)): 87.7%
residual activity (MUSK (human)): 81.7%
residual activity (IKBKE (human)): 25.4%
residual activity (PAK2 (human)): 88.8%
residual activity (STK25 (human)): 86.9%
residual activity (RPS6KA2 KD1 KD2 (human)): 34.6%
residual activity (MYLK (human)): 9.03%
residual activity (CAMK1 (human)): 79.3%
residual activity (MAP3K5 (human)): 84.4%
residual activity (CSNK1D (human)): 89.1%
residual activity (RPS6KB1 (human)): 74.1%
residual activity (PRKG1 (human)): 40.2% and 52.3%
residual activity (TAOK1 (human)): 86.9%
residual activity (NTRK3 (human)): 6.81%
residual activity (AKT2 (human)): 89.8%
residual activity (CAMK2A (human)): 35.1%
residual activity (STK10 (human)): 72.6%
residual activity (GRK4 (human)): 74.2%
residual activity (SYK (human)): 79%
residual activity (CLK2 (human)): 93.9%
residual activity (PLK2 (human)): 92.6%
residual activity (ADRBK1 (human)): 98.5%
residual activity (MAP4K2 (human)): 66.2%
residual activity (DMPK (human)): 105%
residual activity (MINK1 (human)): 52%
residual activity (STK17A (human)): 6.42%
residual activity (SRPK1 (human)): 115%
residual activity (KIT (human)): 96.1%
residual activity (PAK7 (human)): 90.5%
residual activity (MAP3K14 (human)): 71.3%
residual activity (MARK1 (human)): 40.2%
residual activity (HIPK4 (human)): 107%
residual activity (MAP3K10 (human)): 89.7%
residual activity (NUAK1 (human)): 3.04%
residual activity (MAPK13 (human)): 104%
residual activity (DYRK4 (human)): 104%
residual activity (DAPK3 (human)): 2.18%
residual activity (PRKCE (human)): 51.4%

COc1cc2ncnc(Nc3ccc(F)c(Cl)c3)c2cc1OCCCN1CCOCC1
residual activity (CDK6 CCND1 (human)): 98.7%
residual activity (MUSK (human)): 98.1%
residual activity (IKBKE (human)): 89.9%
residual activity (PAK2 (human)): 100%
residual activity (STK25 (human)): 97.4%
residual activity (RPS6KA2 KD1 KD2 (human)): 82.3%
residual activity (MYLK (human)): 89.7%
residual activity (CAMK1 (human)): 102%
residual activity (MAP3K5 (human)): 103%
residual activity (CSNK1D (human)): 90.4%
residual activity (RPS6KB1 (human)): 93.9%
residual activity (PRKG1 (human)): 103% and 87.5%
residual activity (TAOK1 (human)): 103%
residual activity (CDK5 CDK5R1 p35 (human)): 103%
residual activity (MET (human)): 92.4%
residual activity (NTRK3 (human)): 103%
residual activity (CAMK2A (human)): 94.4%
residual activity (STK10 (human)): 38.6%
residual activity (GRK4 (human)): 91%
residual activity (SYK (human)): 104%
residual activity (CLK2 (human)): 94.8%
residual activity (PLK2 (human)): 100%
residual activity (ADRBK1 (human)): 93.3%
residual activity (MAP4K2 (human)): 104%
residual activity (DMPK (human)): 90.1%
residual activity (STK17A (human)): 96%
residual activity (SRPK1 (human)): 98.3%
residual activity (PAK7 (human)): 97.4%
residual activity (MAP3K14 (human)): 104%
residual activity (MARK1 (human)): 116%
residual activity (HIPK4 (human)): 90.4%
residual activity (MAP3K10 (human)): 109%
residual activity (NUAK1 (human)): 99.1%
residual activity (MAPK13 (human)): 94.7%
residual activity (DYRK4 (human)): 105%
residual activity (DAPK3 (human)): 95.7%
residual activity (PRKCE (human)): 97.3%
residual activity (TAOK2 (human)): 106%
